# Test results reported in patent US20120252054A1, “SYSTEM FOR TRANSFORMATION OF THE CHLOROPLAST GENOME OF SCENEDESMUS SP. AND DUNALIELLA SP” (priority 2009, published 2012).
# Assays:
# [1] = tested on: S. dimorphus transformants containing the codA transgene; assay: Plating on TAP agar containing 5-fluorocytosine, codA transformants; type: cell-based, Scenedesmus dimorphus; conditions: 1 mg/mL 5FC
# From the text: In this example, a nucleic acid encoding cytosine deaminase gene (codA) from E. coli was introduced into S. dimorphus. Transforming DNA is shown graphically in FIG. 23. In this instance the DNA segment labeled “codA cr” is the codA encoding gene (SEQ ID NO: 31, codA), the segment labeled “psbD” is the promoter and 5′ UTR for the psbD gene from S. dimorphus, the segment labeled “D1 3′” is the 3′ UTR for the psbA gene from S. dimorphus, and the segment labeled “CAT” is the chloramphenicol acetyl transferase gene (CAT) from E. coli, which is regulated by the promoter and 5′ UTR sequence for the tufA gene from S. dimorphus and the 3′ UTR sequence for the rbcL gene from S. dimorphus. The transgene expression cassette and selection marker are targeted to the S. dimorphus chloroplast genome via the segments labeled “Homology A” and “Homology B” which are approximately 1000 bp fragments homologous to sequences of DNA adjacent to nucleotide 071,366 (Site 1; nucleotide locations according to the sequence available from NCBI for S. obliquus, NC—008101) on the 5′ and 3′ sides, respectively. All DNA segments were cloned into pUC19. All DNA manipulations carried out in the construction of this transforming DNA were essentially as described by Sambrook et al., Molecular Cloning: A Laboratory Manual (Cold Spring Harbor Laboratory Press 1989) and Cohen et al., Meth. Enzymol. 297, 192-208, 1998. […]
# [2] = tested on: S. obliquus transformants containing the codA transgene; assay: Plating on TAP agar containing 5-fluorocytosine, codA transformants of S. obliquus; type: cell-based, Scenedesmus obliquus; conditions: 1 mg/mL 5FC
# From the text: In this example, a nucleic acid encoding cytosine deaminase gene (codA) from E. coli was introduced into S. obliquus. Transforming DNA is shown graphically in FIG. 23. In this instance the DNA segment labeled “codA cr” is the codA encoding gene (SEQ ID NO: 27, codA), the segment labeled “psbD” is the promoter and 5′ UTR for the psbD gene from S. dimorphus, the segment labeled “D1 3′” is the 3′ UTR for the psbA gene from […], and the segment labeled “CAT” is the chloramphenicol acetyl transferase gene (CAT) from E. coli, which is regulated by the promoter and 5′ UTR sequence for the tufA gene from S. dimorphus and the 3′ UTR sequence for the rbcL gene from S. dimorphus. The transgene expression cassette and selection marker are targeted to the S. obliquus chloroplast genome via the segments labeled “Homology A” and “Homology B” which are approximately 1000 bp fragments homologous to sequences of DNA adjacent to nucleotide 071,366 (Site 1; nucleotide locations according to the sequence available from NCBI for S. obliquus, NC—008101) on the 5′ and 3′ sides, respectively. All DNA segments were cloned into pUC19. All DNA manipulations carried out in the construction of this transforming DNA were essentially as described by Sambrook et al., Molecular Cloning: A Laboratory Manual (Cold Spring Harbor Laboratory Press 1989) and Cohen et al., Meth. Enzymol. 297, 192-208, 1998. […]
# Wildtype S. dimorphus = assay: Plating on TAP agar containing 5-fluorocytosine, wild type; type: cell-based, Scenedesmus dimorphus; conditions: 1 mg/mL 5FC
# Experimental: To determine if functional codA is produced by transformed algae cells, cells were grown in TAP media to log phase, pelleted and resuspended to 10^8 cells/mL and plated onto TAP agar medium containing 1 mg/mL 5-fluorocytosine (5FC).
# To determine if functional codA is produced by transformed algae cells, cells were plated onto TAP agar medium containing 1 mg/mL 5-fluorocytosine (5FC).
# wild type S. dimorphus = assay: Growth in HSM with various concentrations of DCMU or atrazine, wild type; type: cell-based, Scenedesmus dimorphus; conditions: constant light 50-100 uE with CO2 enrichment, 4 days
# [3] = tested on: S. dimorphus DCMU transformants (CAT cassette); assay: Patching of DCMU-selected CAT-cassette transformants onto TAP agar with chloramphenicol; type: cell-based, Scenedesmus dimorphus; conditions: TAP agar medium containing 25 μg/mL CAM
# From the text: In order to determine if DCMU selection could result in incorporation of an expression cassette downstream of the psbA gene, A vector was constructed containing an expression cassette consisting of an endogenous promoter, a chloramphenicol acetyltransferase (CAT) gene, and an endogenous terminator cloned ˜500 bp downstream of the S264A/XbaI mutated psbA gene fragment from S. dimorphus and including the rpl20 gene. Transforming DNA is shown graphically in FIG. 4. In this instance the DNA segment labeled “CAT” is the chloramphenicol acetyl transferase gene from E. coli, the segment labeled “tufA” is the promoter and 5′ UTR sequence for the tufA gene from S. dimorphus, and the segment labeled “rbcL” is the 3′ UTR for the rbcL gene from S. dimorphus. The selection marker cassette is targeted to the S. dimorphus chloroplast genome via the segments labeled “Homology A2” and “Homology B2” which are 1000 bp fragments homologous to sequences of DNA adjacent to nucleotide 065,353 and include an S264A/XbaI mutated partial psbA coding sequence, its 3′UTR, and the rpl20 coding sequence. This vector targets integration of the selection marker cassette approximately 400 bp 3′ of the stop codon of the psbA gene.
# Transforming DNA was introduced into S. dimorphus via particle bombardment (as described in EXAMPLE 1) with DNA carried on 550 nm gold particles, @500 psi and a shooting distance of 4 cm. […]
compound,measurement,setting,value
"Nc1nc(=O)[nH]cc1F [5FC, 5-fluorocytosine]",survival on TAP agar containing 5FC,[1],do not
same,survival on TAP agar containing 5FC,[2],did not
same,survival on TAP agar containing 5FC,Wildtype S. dimorphus,survived
CCNc1nc(Cl)nc(NC(C)C)n1 [Atrazine],concentration in which cells fail to grow,wild type S. dimorphus,0.5 µM
"O=C(N[C@H](CO)[C@H](O)c1ccc([N+](=O)[O-])cc1)C(Cl)Cl [CAM, chloramphenicol]",resistance of transformants to chloramphenicol,[3],resistant
"CN(C)C(=O)Nc1ccc(Cl)c(Cl)c1 [DCMU, 3-(3,4-Dichlorophenyl)-1,1-dimethylurea]",concentration in which cells fail to grow,wild type S. dimorphus,0.5 µM
